# Measured values published in the METLIN SMRT retention time set (Domingo-Almenara et al. 2019).
# Experiment: gradient 5% acetonitrile 3 min, to 50% in 2 min, to 85% in 15 min, held 3 min, 100 µL/min
# Conditions: column: Zorbax Extend-C18 2.1 x 50 mm; eluents: water / acetonitrile, 0.1% formic acid
# In short: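 The system's dead and dwell volumes were 40 μL and 900 μL, with a Zorbax Extend-C18 column (2.1 × 50 mm, 1.8 μm) run at 100 μL/min in water and acetonitrile containing 0.1% formic acid each. Pure standards were analyzed in mixtures of ~100 molecules by HPLC–quadrupole time-of-flight mass spectrometry in positive and negative ionization mode. Retention time was assigned from computationally picked, manually inspected adduct peaks.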
row,Compound,RP-LC retention time [s]
1,Cc1cc(NC(=O)C2CCCN(S(=O)(=O)c3cc(-c4noc(C5CCCC5)n4)cs3)C2)no1 (stereo not given),1110
2,Cc1cc(N2CCN(C)CC2)nc(N2CCN(S(=O)(=O)c3ccc(Br)cc3)CC2)n1,580
3,Oc1cccc2ccc(N3CCOCC3)nc12,547
4,Cc1ccc(NC(=O)C2CCc3nc(N4CCOCC4)ncc3C2)cc1F (stereo not given),735
5,Cn1cc(CC(=O)NCC2CCCCC2)c2cccnc21,734
6,CCn1c(N2CCCC(C(=O)N3CCN(Cc4ccc5c(c4)OCO5)CC3)C2)cc(=O)n(C)c1=O (stereo not given),616
7,Cc1ccc(CNC(=O)CCc2conc2-c2ccccc2)o1,865
8,Cc1sc2ccn(C)c(=O)c2c1C(=O)NCc1cccc(Cl)c1,817
9,Cc1cccc(-c2noc(-c3nn(-c4ccc(Cl)cc4)ccc3=O)n2)c1,1000
10,CCOC(=O)C(=O)NCC1CN(c2ccccc2)C(=O)O1 (stereo not given),647
11,CCn1nnc2ccc(-c3noc(-c4ccc(C#N)cc4)n3)cc21,971
12,COc1ccc2c(c1)C1(CCN(C(=O)COc3cccc(C)c3)C1)C(=O)N2 (stereo not given),668
13,CCOC(=O)c1[nH]c(C)c(CCC(=O)N2CCC(C(=O)N3CCOCC3)CC2)c1C,646
14,O=C(C1CCN(c2nc(-c3ccc(Cl)cc3)no2)CC1)N1CCN(c2ncccn2)CC1,968
15,COc1ccc(S(=O)(=O)Nc2nc(C(=O)Nc3cccc(Cl)c3)cs2)cc1,844
16,COc1cccc(NC(=O)Cn2nc3c(Oc4cc(C)cc(C)c4)nccn3c2=O)c1,904
17,O=C1CCC(NC(=O)OCc2ccccc2)(C(=O)OCc2ccccc2)O1 (stereo not given),830
18,COc1cc(-c2nc3ccc(C)cn3c2Nc2ccc(C)cc2)ccc1O,661
19,N#C/C(=C\c1ccc2ccccc2c1)C(=O)c1ccccc1,1090
20,COC(=O)c1ccccc1NC(=O)CSc1nc(C)cc(N2CCOCC2)n1,603
21,O=C(c1ccc2c(c1)OCO2)N1CCC2(CC1)NC(=O)N(Cc1ccccc1Cl)C2=O,838
22,CCn1c(N)c(C(=O)NC)c(=O)c2ccc(C#C[C@@](C)(O)COC)nc21,698
23,NC(=O)C1CCN(C(=O)Cc2csc(NC(=O)c3ccco3)n2)CC1,572

row,Compound,RP-LC retention time [s]
1,CC1=NS(=O)(=O)c2cccnc2N1c1ccc(Br)cc1,836
2,COc1cc(C2C(=O)N(C3CCCCC3)CC(=O)N2Cc2ccco2)ccc1OC(C)C (stereo not given),964
3,O=C(Nc1ccc2c(c1)C(=O)N1CCCCC1CCO2)Nc1ccccc1C(F)(F)F (stereo not given),832
4,Cc1cccc(NC(=O)C2CCCN2S(=O)(=O)c2cc3c(cc2Cl)NC(=O)CO3)c1 (stereo not given),822
5,Cc1ccc(CSc2nccc3c2ccn3CC(=O)N2CCN(c3ccccn3)CC2)cc1,604
6,O=C(CN1C(=O)C2CCCCN2c2ccc(S(=O)(=O)N3CCCC3)cc21)NC1CCCCCC1 (stereo not given),1000
7,COc1ccc(C2CC(=O)N(c3ccc(C)c(Cl)c3)C(=O)C2)cc1,1010
8,Cc1cccc2c(C(N)=O)cc(=O)[nH]c12,596
9,O=C(Cn1nc2c(N3CCCCCC3)nccn2c1=O)NCCC1=CCCCC1,784
10,O=S(=O)(c1cc(Cl)ccc1Cl)N1CCc2nc(-c3ccc(F)cc3)ncc2C1,1240
11,COCCNC(=O)Nc1cccn2c(C)nnc12,556
12,Cc1ccccc1CNC(=O)C(=O)NCC(c1ccc2c(c1)OCO2)N1CCOCC1 (stereo not given),668
13,Cc1cc(NC(=O)Cn2c(=O)c3cc(C4CC4)nn3c3ncccc32)ccc1F,818
14,Cc1ccc(CNC(=O)C2(C)CCCN(C(=O)c3cccc(Br)c3)C2)cc1 (stereo not given),960
15,CNC(=O)Nc1ccc(C2(C(=O)NCc3ccco3)CCC2)cc1,670
16,Cn1cnc(S(=O)(=O)N2CC(Oc3ccccc3-c3nc(-c4ccccc4)no3)C2)c1,915
17,Cn1nc(C(=O)Nc2cccnc2)ccc1=O,493
18,Cc1cc(Nc2nc(C(=O)N3CCN(c4ccccn4)CC3)cc3occc23)ccc1Br,754
19,Cc1ccc(C)c(CN2C(=O)NC3(CCN(C(=O)c4ccsc4)CC3)C2=O)c1,827
20,O=S(=O)(c1ccccc1)N1CCC(c2noc(-c3ccc(F)cc3)n2)CC1,791
21,COc1ccc(N2C=C(C#N)S(=O)(=O)c3ccc(Cl)cc32)c(OC)c1,995
22,O=C(NC1CCN(Cc2ccccc2)CC1)c1cn2nc(Cl)ccc2n1,621
23,COc1ccc(C2CC(=O)N(c3cc(C)ccc3C)C(=O)C2)cc1OC,872

row,Compound,RP-LC retention time [s]
1,CCOC(=O)C1CCN(c2ccc3nnc(CCc4nc(-c5ccc(F)cc5)no4)n3n2)CC1,966
2,Cc1ccnc(Nc2nc(-c3ccc(C)cc3C)cs2)c1,859
3,Cc1cnn(CCC(=O)N2CCCn3ccnc3C2C2CCCC2)c1 (stereo not given),611
4,O=C(NCc1cccs1)C1CCCN(c2nc3ccccc3n(Cc3ccccc3)c2=O)C1 (stereo not given),1100
5,O=C(NCCc1c[nH]c2ccccc12)C1CCN(c2nc3ccccc3[nH]2)CC1,615
6,CC1CCN(C(=O)Cn2c(CNC(=O)c3ccco3)nc3ccccc32)CC1,650
7,Cc1cccc(CNC(=O)c2ccc3ncnc(N4CCCC4)c3c2)c1,647
8,CCOC(=O)C1CCN(c2nc(=O)n(CC(=O)Nc3ccccc3C)c3ccccc23)CC1,790
9,CCc1nc2c(c(=O)n1CC(=O)NC(C)(C)C)CN(Cc1ccccc1)CC2,605
10,CCOc1ccccc1-c1noc(Cn2c(=O)n(CC3CCCO3)c(=O)c3ccccc32)n1 (stereo not given),966
11,Cc1ccc(-c2coc(-c3ccc(NC(=O)NCc4ccc(F)cc4)cc3)n2)c(C)c1,1180
12,Cc1ccc(C)c(NC(=O)Cn2nc3nc(N4CCCC4)ccn3c2=O)c1,687
13,COc1cccc(NC(=O)Cn2nc3n(c2=O)CCCCC3)c1,668
14,NCC(=O)Nc1ccc(Cl)cc1C(=O)c1ccc[nH]1,665
15,COc1ccc(CCNC(=O)CN2C(=O)CCc3cc(Br)ccc32)cc1OC,800
16,O=C(CCn1c(=O)oc2ccccc21)Nc1ccc(S(=O)(=O)Nc2nccs2)cc1,650
17,CC(=O)N1CCc2sc(C(=O)NC(C)c3ccccc3)cc2C1 (stereo not given),708
18,O=C(Nc1ccccc1-c1nc2ccccc2[nH]1)c1ccccc1Cl,871
19,COC[C@@H]1CN(Cc2ccc(Cl)c(F)c2)C[C@H]1c1nc(C)no1,645
20,COc1ccc(OCC(=O)N2CCCN(c3cc(=O)n(C(C)C)c(=O)n3C(C)C)CC2)cc1,834
21,Cc1cccc(N2CCN(c3ccc4cc(S(=O)(=O)N5CCCC5)ccc4n3)CC2C)c1 (stereo not given),962
22,O=C(Nc1cnn(-c2ncncc2N2CCSCC2)c1)NC1CCCCC1,742
23,CCS(=O)(=O)N1CCCc2cc(C(=O)NC)ccc21,657

row,Compound,RP-LC retention time [s]
1,CCCn1cc(CCNS(=O)(=O)c2ccccc2CC)c2cccnc21,923
2,Cc1ccc(-c2noc(C3CCCN3S(=O)(=O)c3ccc(F)c(Cl)c3)n2)cc1 (stereo not given),1240
3,O=C(NC1CCN(c2nnc3ccc(Cl)cn23)CC1)c1ccc(N2CCCC2=O)cc1,651
4,COc1ccc(Cl)cc1NC(=O)NCCc1nc2cccnc2n1CC(C)C,770
5,Cc1cc2nn(CC(=O)NCc3ccccc3)c(=O)n2c(Nc2ccc(C)c(F)c2)n1,1060
6,Cc1nc2cc(-c3noc(-c4ccccc4Br)n3)ccc2o1,1140
7,CCC(=O)Nc1ccc(S(=O)(=O)N2CCC(N3CCOCC3)CC2)cc1,575
8,CCCn1c(=O)c2cc(C(=O)N3CCN(Cc4ccccc4)CC3)nn2c2ccccc21,590
9,O=S(=O)(NCc1ccc(F)cc1)c1ccccc1-c1nc(-c2ccccc2)no1,1160
10,C[C@@H](Nc1cc(NS(=O)(=O)N2CCC2)nc(SCc2cccc(F)c2F)n1)[C@@H](O)CO,845
11,O=C(C1CCC1)N1[C@H]2CC[C@@H]1c1cnc(-c3ccc(F)cc3)nc1C2,955
12,NC(=O)C1CCN(C(=O)c2cn(-c3cccc(Cl)c3)nn2)CC1,646
13,CCN(CC)C(=O)C1CCCN(c2ncnc3c2nc2n3CCCCC2)C1 (stereo not given),708
14,CCc1ccc2oc(=O)cc(CN3CCN(c4ccccn4)CC3)c2c1,669
15,CCC(C)NS(=O)(=O)c1cc(-c2nnc(-c3ccccc3)o2)ccc1OC (stereo not given),955
16,CC(C)N1CCN(C(=O)c2ccc(-c3cccs3)nc2)CC1,588
17,Cc1ccc(CNC(=O)C2(C)CN(S(C)(=O)=O)CC(=O)N2c2ccc(F)cc2C)cc1 (stereo not given),790
18,CCOc1cccc(C2c3[nH]c4ccccc4c3CCN2C(=O)C2CCC2)c1 (stereo not given),1200
19,CN1C2CCC1CC(OC(c1ccc(F)cc1)c1ccc(F)cc1)C2 (stereo not given),838
20,CCOC(=O)c1nc(NCc2ccc(F)cc2)c2ccccc2n1,931
21,CC(C)CN1CCn2cc(C(=O)N3CCN(c4ccccc4)CC3)nc2C1,605
